Assay results from patent US20190350955A1, “METHODS AND PHARMACEUTICAL COMPOSITIONS FOR THE TREATMENT OF CARDIOMYOPATHIES” (INSERM (Institut National de la Sante et de la Recherche …, priority 2016, published 2019).
Values belong to the molecule of their own block, whether it stands above or below them.

What was measured:
Lmna^H222P/H222P mice [1] = assay: NAD+ content quantification in heart and liver of treated Lmna H222P/H222P mice; assay type: in vivo, mouse; conditions: NAM 500 mg/kg/q.a.d. IP, from 17 weeks of age for 9 weeks, vs placebo
Experimental: Mice were bred in an accredited animal facility (accreditation number: C-75-13-08). All experiments on mice were approved by the Comité d'éthique en expérimentation animate Charles Darwin No 5. Mice Lmna^H222P/H222P were backcrossed 8 times to 129S2/SvPasOrlRj strain mice to obtain pure genetic background. Male mice used for the studies were maintained under a 12 h light/12 h dark cycle at constant temperature (23° C.) with free access to food and water. Nicotinamide riboside (NR) complementation: Animals at 17 weeks of age were fed for 9 weeks with either a chow diet (A04: Scientific Animal Food & Engineering) or a chow diet complemented with 0.25% of NR (kindly provided by ChromaDex, Inc. California) corresponding to a dose of 400 mg/kg/day for a mouse weighing 25 g eating 4 g of food per day. […]
Fresh mouse tissues were homogenized and processed according to previous report (Sander B J, Oelshlegel F J & Brewer G J (1976) Quantitative analysis of pyridine nucleotides in red blood cells: a single-step extraction procedure. Anal. Biochem. 71: 29-36). The concentration of NAD+ in heart tissue was determined using a spectrophotometric assay at 550 nm based on an alcohol dehydrogenase cycling reaction, in which a Methyl Thiazolyl Tetrazolium (MTT) is reduced to Formazan. […]

Lmna^H222P/H222P mice [2] = assay: Echocardiography and heart size in treated Lmna H222P/H222P mice; assay type: in vivo, mouse; conditions: NAM 500 mg/kg/q.a.d. IP, 9 weeks, vs placebo
Experimental: (§1) Mice were bred in an accredited animal facility (accreditation number: C-75-13-08). All experiments on mice were approved by the Comité d'éthique en expérimentation animate Charles Darwin No 5. Mice Lmna^H222P/H222P were backcrossed 8 times to 129S2/SvPasOrlRj strain mice to obtain pure genetic background. Male mice used for the studies were maintained under a 12 h light/12 h dark cycle at constant temperature (23° C.) with free access to food and water. Nicotinamide riboside (NR) complementation: Animals at 17 weeks of age were fed for 9 weeks with either a chow diet (A04: Scientific Animal Food & Engineering) or a chow diet complemented with 0.25% of NR (kindly provided by ChromaDex, Inc. California) corresponding to a dose of 400 mg/kg/day for a mouse weighing 25 g eating 4 g of food per day. Nicotinamide (NAM) treatment: Animals at 17 weeks of age were injected intraperitoneally (IP) every two days (q.a.d.) for 9 weeks with either physiologic serum or physiologic serum added with NAM at 50 mg/ml corresponding to a dose of 500 mg/kg for a mouse weighing 25 g.
Mouse transthoracic echocardiography was performed using an ACUSON 128XP/10 ultrasound with a 11 Mhz linear probe (Mountain View).MHz transducer applied to the chest wall. Mice were maintained under anesthetized with 0.75% isoflurane anaesthesia (0.75% in O2) and placed on a heating pad (25° C.). Left ventricular (LV) parameters were obtained from M-mode recordings in a modified short axis view. The intra ventricular septum (IVS), LV posterior wall (LVPW), LV diameter (LVD) in diastole and systole, the percentage of fractional shortening (FS) and the heart rate (HR) were measured from the mean of at least three separate cardiac cycles. A “blinded” echocardiographer, unaware of the genotype and the treatment, performed the examinations.

SRF^HKO mice = assay: RT-qPCR gene expression in SRF HKO heart; assay type: in vivo, mouse; conditions: i.p. administration from D8 to D15
Description: (§2) Transgenic mice. All experiments with animals conformed to the Directive 2010/63/EU of the European Parliament and were approved by the ethics committee Charles Darvin #5 (agreement 00369.01). SRF^HKO mice bear the tamoxifen-inducible α-MHC-MerCrMer transgene and the Siffloxed allele (Sf/Sf) as described previously (Parlakian et al. (2005). Temporally controlled onset of dilated cardiomyopathy through disruption of the SRF gene in adult heart. Journal 112, 2930-2939; Tritsch et al. (2013). An SRF/miR-1 axis regulates NCX1 and Annexin A5 protein levels in the normal and failing heart. Journal 98, 372-380). Transgenic mice have been bred for more than 20 generations in C57BL/6N background. The mice were housed in standard animal facility (CEF. Hôpital Pitié Salpétrière, agreement A-75-13-15, 75013 Paris), under a 12-h dark/light cycle. Tamoxifen (Sigma T5648) was administrated by i.p. injection at a dose of 0.7 mg diluted in 100 μl peanut oil at day (D) 0, D1 and D2. (Sf/Sf) littermates injected with tamoxifen at the same time than mutant were used as controls.
Nicotinamide and nicotinamide riboside i.p. administration. Nicotinamide was diluted in saline at 300 mM. Nicotinamide riboside (NR) bromide salt stock solution (1M) was in 10 mM citric acid pH 6.0. For injection 3 volumes of NR stock solution was mixed extemporaneously with 7 volumes of PBS to obtain a 300 mM injectable solution at pH 7.2. Mice were injected daily at a dose of 1 μmole/g body weight.
SRF^HKO and control (Sf/Sf) mice were administered either rodent maintenance SAFE A04 diet containing 3.10% crude fat. 16.10% crude proteins. 26% starch and 1.9% sugar (Scientific Animal Food Engineering, Paris, France) or SAFE # A04 diet supplemented with NR. NR was provided by Chromadex under brand name NIAGEN (Irvine Calif. USA). The soft pellets were manually prepared every 5 days by mixing 1.65 g of NR into 500 g of powdered SAFE A04 diet and 235 ml of water to reach 2.24 mg of NR/g (wet weight). Control diet was prepared in the same way omitting NR. Mice had ad libitum access to food and water. Mice (average body weight 31.3±0.82 g, no difference between groups) consumed an average of 6 g of soft food per day, reaching a daily intake of 450 mg NR/kg. No difference in food intake was observed between SRF^HKO and control mice.
cDNAs were reverse transcribed from RNA (1.5 μg) extracted in TRIzol (Thermofisher) from cell cultures and tissues using the Superscript II Reverse Transcriptase (Life Technologies). Quantitative PCR was carried out on a Light Cycler 480 (Roche Diagnostics) using Fast Start SYBR Green Master (Roche Diagnostics). Quantification of gene expression was calculated as R=2^ΔCt(Ref Cp−target Cp), with Hprt used as a as reference. Primers were designed using the NCBI Primer-BLAST software. Primer sequences are available on request.

Lmna^H222P/H222P mice [3] = assay: qPCR of cardiac remodeling markers Myh7, Nppa, Col1a2 in heart; assay type: in vivo, mouse; conditions: NAM 500 mg/kg/q.a.d. IP, 9 weeks
Experimental: as §1
Total RNAs were extracted from around 5 mg of mouse heart using RNeasy Mini kit (Qiagen). RNAs integrity were controlled on the Bioanalyzer 2100 (Agilent). […] Relative mRNA transcript levels calculated using the 2^ΔCT method were normalized by comparison to housekeeping mRNA.

Nmrk2 promoter = Nmrk2 promoter luciferase reporter assay in NRC; assay type: cell-based, rat; conditions: for Nmrk2 promoter induction by AICAR: NRC, p3009-Luc, antagonist added 30 minutes before AICAR for 24 h; for activity of the Nmrk2 promoter (p3009-Luc): NRC co-transfected with PPARα and RXR expression vectors
Experimental: Isolation and Treatments of Neonatal Rat Cardiomyocytes (NRC) NRC were isolated as described previously (Diguet et al., 2011). 1-day-old rat pups were killed by decapitation and the cardiac ventricles were harvested and minced into 1 to 2-mm wide cubes with scissors. After washing with Tyrode solution, heart fragments were subjected up to 10 rounds of digestion with 0.05 mg/ml of Liberase Blendzyme 4 (Roche Applied Science) in 10 ml oxygenated Tyrode solution under agitation at 37° C. for 10 minutes. The supernatant of the first digestion was discarded and the following digestions were centrifuged and the cell pellet dissociated in 2 ml of DMEM, 10% FCS. The different fractions were pooled and centrifuged on a discontinuous Percoll gradient (bottom 58.5%. top 40.5%. 30 min. 3000 rpm) to enrich in cardiomyocytes at the interface between the 2 Percoll solutions. Non cardiac cells containing mainly fibroblasts were at the top of the tubes. Neonatal cardiomyocytes were seeded at a density 5×10^5 cells/well in 6-well plates coated with 10 μg/ml of laminin (BD Biosciences) in DMEM without pyruvate, with glucose 4.5 g/l, 10% horse serum, 5% FCS and cultured at 37° C. in 1% CO, atmosphere. To assay the impact on NAD^+ and Nmrk2 expression, Azaserin and FK866 drugs were added in the culture medium at day 5 and renewed everyday when the treatment was prolonged over several days. The same was done for NAD^+, NR and AICAR (5-aminoimidazole-4-carboxamide-1-β-D-ribofuranoside). AICAR was administrated for 24 h only. Doses are indicated in the legends. For treatment of transfected cells (see next section), AICAR, FK866 and PPAR agonists and antagonist were administrated 1 day after transfection. PPAR agonists: GW7647 for PPARα, GW501516 for PPARβ/δ and GW1929 for PPARγ; PPAR antagonists: GW6471 PPARα, GSK3787 for PPARβ/δ and GW9662 for PPARγ were ordered from SIGMA ALDRICH CHIMIE, Saint Quentin Fallavier, France.
The transcription initiation site of mouse Nmrk2 promoter was determined by 5′RACE and was conform to the reported site in the Genebank (NM_027120.2). The promoter of the mouse Nmrk2 gene was cloned from C57B16/N genomic DNA by PCR, and inserted into a pGL4.10[luc2] luciferase reporter plasmid (Promega prod no E6651). Subsequent deletions were performed by enzymatic digestion or primer mediated subcloning of the original fragment. 2.5×10^5 cardiomyocytes in 12-well plates were co-transfected at day 2 of culture with 1 μg of Nmrk2 pGL4.10[luc2] constructs and 100 ng of pGL4.73[hRluc/SV40] Vector (Promega prod no E6911) as an internal control of transfection efficiency using Lipofectamine 2000 (Lifetechnology) as indicated by the supplier. In the case of AICAR treatment, Luciferase activity was analyzed 48 h later with the Dual-Luciferase Assay System (Promega).
The pcDNA3 vectors harboring dominant negative AMPK, PPARα, PPARβ and PPARγ as well as RXR genes were kindly provided by Pr. Michel Raymondjean (El Hadri et al. (2015). AMPK Signaling Involvement for the Repression of the IL-1beta-Induced Group IIA Secretory Phospholipase A2 Expression in VSMCs. Journal 10, e0132498; Ravaux et al. (2007). Inhibition of interleukin-1 beta-induced group 11A secretory phospholipase A2 expression by peroxisome proliferator-activated receptors (PPARs) in rat vascular smooth muscle cells: cooperation between PPARbeta and the proto-oncogene BCL-6. Journal 27, 8374-8387; Woods et al. (2000). Characterization of the role of AMP-activated protein kinase in the regulation of glucose-activated gene expression using constitutively active and dominant negative forms of the kinase. Journal 20, 6704-6711). These vectors were cotransfected at a dose of 100 ng/well in 24-well plates with 500 ng of Nmrk2 luciferase constructs.

control hearts = assay: Transcriptomic analysis of control hearts after phenylephrine administration; assay type: in vivo, mouse; conditions: PE 80 mg/kg/day for 15 days
Description: as §2
(§3) The series of mice treated with PE and the impact of the treatment on cardiac parameters have been published previously (Tritsch et al. (2013). An SRF/miR-1 axis regulates NCX1 and Annexin A5 protein levels in the normal and failing heart. Journal 98, 372-380). Briefly. […]

SRF^HKO hearts = assay: Transcriptomic analysis of SRF HKO hearts after phenylephrine administration; assay type: in vivo, mouse
Description: as §2, §3

Structure (SMILES): NC(=O)c1cccnc1 [NAM, Nicotinamide]
NAD+ content in liver and heart (Lmna^H222P/H222P mice [1]): did not exhibit any changes
cardiac contractility (Lmna^H222P/H222P mice [2]): no significant changes
left-ventricular end diastolic diameter (Lmna^H222P/H222P mice [2]): no significant changes
left-ventricular end systolic diameter (Lmna^H222P/H222P mice [2]): no significant changes
Srf and Nmrk2 expression levels (SRF^HKO mice): not changed
expression of Myh7, Nppa and Col1a2 (Lmna^H222P/H222P mice [3]): no changed expression

Structure (SMILES): O=C(Nc1ccccc1)c1cc([N+](=O)[O-])ccc1Cl [G9662]
Nmrk2 promoter induction by AICAR (Nmrk2 promoter): Neither the PPARβ antagonist GSK3787 nor the PPARγ antagonist G9662 had any effect

activity of the Nmrk2 promoter (p3009-Luc) (Nmrk2 promoter; antagonist 10 μM): repressed
Nmrk2 promoter induction by AICAR (Nmrk2 promoter): blunted
Structure (SMILES): CCC(=O)NC[C@H](Cc1ccc(OCCc2nc(-c3ccccc3)oc2C)cc1)N/C(C)=C\C(=O)c1ccc(C(F)(F)F)cc1 [G6471]

Structure (SMILES): O=C(NCCS(=O)(=O)c1ccc(C(F)(F)F)cn1)c1ccc(Cl)cc1 [GSK3787]
Nmrk2 promoter induction by AICAR (Nmrk2 promoter): Neither the PPARβ antagonist GSK3787 nor the PPARγ antagonist G9662 had any effect

activity of the Nmrk2 promoter (p3009-Luc) (Nmrk2 promoter; agonist 0.6 μM): increased
Structure (SMILES): CC(C)(Sc1ccc(CCN(CCCCC2CCCCC2)C(=O)NC2CCCCC2)cc1)C(=O)O [GW7647]

Structure (SMILES): CNC[C@H](O)c1cccc(O)c1 [PE, phenylephrin]
Nmrk2 expression (control hearts): 4 fold
Nmrk2 expression (SRF^HKO hearts; PE 80 mg/kg/day for 15 days, SRF HKO hearts): 57 fold
Nampt and Pnp expression (SRF^HKO hearts; PE treatment): depressed
